The source of these data is patent publication US4923857A, “3-Alkenyl-1-azabicyclo(3.2.0)hept-2-ene-2-carboxylic acid compounds” (Fujisawa Pharmaceutical Company, Ltd., priority 1988, dated 1990).

This experiment deals with S. aureus 209P JC-1. Put plainly: in vitro Antimicrobial Activity, two-fold agar-plate dilution method (MIC). It counts as cell-based. The conditions noted are these: Staphylococcus aureus, HI-agar, 37° C., 20 hours, 10^6 viable cells per ml, read-out: MIC (minimal inhibitory concentration). On the procedure:
in vitro Antimicrobial Activity was determined by the two-fold agar-plate dilution method as described below.
One loopful of an overnight culture of a test strain in Trypticase-soy broth (10^6 viable cells per ml) was streaked on heart infusion agar (HI-agar) containing graded concentrations of the test compound, and the minimal inhibitory concentration (MIC) was expressed in terms of […] after incubation at 37° C. for 20 hours.

Regarding `C/C(=C\[C@@H]1CCCN1)C1=C(C(=O)O)N2C(=O)[C@H]([C@@H](C)O)[C@H]2C1` [Example 4-(1), (5R,6S)-6-[(1R)-1-hydroxyethyl]-7-oxo-3-[(E)-2-{(2S)-pyrrolidin-2-yl}-1-methylethenyl]-1-azabicyclo [3.2.0]hept-2-ene-2-carboxylic acid], the MIC was no more than 0.025 µg/mL.
